Experimental data taken from US20250213701A1, “MEDICAMENT FOR TREATING HUMAN TUMOR BASED ON ERF3A-TARGETING PROTEOLYSIS MECHANISM” (SUZHOU DEGEN BIO-MEDICAL CO., LTD., priority 2022, published 2025).

Tests used:
Format in all cases: cell-based, human
22Rv1 cells = assay: Anti-proliferative toxicity against prostate cancer cell line 22Rv1 (CCK8); conditions: Homo sapiens, 72 h, 3 days, CCK8
Procedure: (§1) Example 82: Detection of Anti-Proliferative Toxicity Against Prostate Cancer Cell Lines Vcap, 22Rv1, and PC-3
(§2) Vcap cells (purchased from the Cell Bank of the Chinese Academy of Sciences, Cat. No. SCSP-5034) were subcultured in a culture medium (DMEM medium+1% penicillin-streptomycin dual-antibiotic solution+10% fetal bovine serum) in an incubator at 5% carbon dioxide and 37° C. 22Rv1 cells (purchased from the Cell Bank of the Chinese Academy of Sciences, Cat. No. TCHu100) were subcultured in a culture medium (RPMI-1640 medium+1% penicillin-streptomycin dual-antibiotic solution+10% fetal bovine serum) in an incubator at 5% carbon dioxide and 37° C.
22Rv1 cells were seeded at 5000 cells/well (90 μL) on a 96-well plate and cultured for 48 h.
(§3) 10 mM compound stock solutions were prepared in DMSO.
(§4) For 22Rv1 cells and PC-3 cells, the compound stock solution was diluted with DMSO to give DMSO solutions 11-19 at concentrations of 0 μM, 500 μM, 100 μM, 20 μM, 4 μM, 0.8 μM, 0.16 μM, 0.032 μM, 0.0064 μM.
For 22Rv1 cells, 2 μL of each of the above solutions 11-19 was added to 98 μL of 22Rv1 medium to give mixed solutions 30-38 of the compound and the medium.
(§5) For 22Rv1 and PC-3 cells, 10 μL of each of the above solutions 30-38 or 39-47 was added to the above cell seed solution to give a total volume of 100 μL (90 μL+10 μL), where the concentrations of the compound in wells were 0 μM, 1.0 μM, 0.2 μM, 0.04 μM, 0.008 μM, 0.0016 μM, 0.00032 μM, 0.00006 μM, and 0.00001 μM. All concentrations were in triplicate.
(§6) After the above-treated cells were cultured for 3 days, 10 μL of the CCK8 solution (DOJINDO, Cat. No. PF725) was added to each well. The plate was incubated in an incubator at 37° C. for 1-4 h and then detected on a microplate reader for the reading at 450 nm.

VCaP cells = assay: Anti-proliferative toxicity against prostate cancer cell line Vcap (CCK8); conditions: Homo sapiens, 72 h, 3 days, CCK8
Procedure: as §1, §2
VCap cells were seeded at 20000 cells/well (90 μL) on a 96-well plate and cultured for 72 h. The original medium was removed, and a new medium of 90 μL was added.
as §3
For VCap cells, the compound stock solution was diluted with DMSO to give DMSO solutions 1-10 at concentrations of 0 μM, 80 μM, 16 μM, 3.2 μM, 1.5 μM, 0.5 μM, 0.15 μM, 0.05 μM, 0.025 μM, and 0.0005 μM.
For Vcap cells, 2 μL of each of the above solutions 1-10 was added to 98 μL of Vcap medium to give mixed solutions 20-29 of the compound and the medium.
For Vcap cells, 10 μL of each of the above solutions 20-29 was added to the above cell seed solution to give a total volume of 100 μL (90 μL+10 μL), where the concentrations of the compound in wells were 0 μM, 0.16 μM, 0.032 μM, 0.006 μM, 0.003 μM, 0.001 μM, 0.0003 μM, 0.0001 μM, 0.00005 μM, and 0.00001 μM. All concentrations were in triplicate.
as §6

PC-3 cells = assay: Anti-proliferative toxicity against prostate cancer cell line PC-3 (CCK8); conditions: Homo sapiens, 72 h, 3 days
Procedure: as §1
PC-3 cells (purchased from the Cell Bank of the Chinese Academy of Sciences, Cat. No. SCSP-532) were subcultured in a culture medium (F12K medium+1% penicillin-streptomycin dual-antibiotic solution+10% fetal bovine serum) in an incubator at 5% carbon dioxide and 37° C.
PC-3 cells were seeded at 4000 cells/well (90 μL) on a 96-well plate and cultured for 24 h.
as §3, §4
For PC-3 cells, 2 μL of each of the above solutions 11-19 was added to 98 μL of PC-3 medium to give mixed solutions 39-47 of the compound and the medium.
as §5, §6

Row | Compound | IC50 (22Rv1 cells) | IC50 (VCaP cells) | IC50 (PC-3 cells)
1 | C[C@]12C=CC(=O)N[C@@H]1CC[C@@H]1[C@@H]2CC[C@]2(C)[C@@H](C(=O)Nc3ccc(OCCCNc4cccc5c4C(=O)N(C4CCC(=O)NC4=O)C5=O)cc3)CC[C@@H]12 (stereo partly drawn) [C17, N-(4-((3-((4-(2-(3-(2,6-dioxopiperidine))-isoindole-1,3-dione))amino)propyl)oxy)phenyl)-3-oxo-4-aza-5α-androst-1-ene-17β-carboxamide] | > 1 µM | > 1 µM | > 1 µM
2 | C[C@]12C=CC(=O)N[C@@H]1CC[C@@H]1[C@@H]2CC[C@]2(C)[C@@H](C(=O)Nc3ccc(OCCCNc4ccc5c(c4)C(=O)N(C4CCC(=O)NC4=O)C5=O)cc3)CC[C@@H]12 (stereo partly drawn) [C18, N-(4-((3-((5-(2-(3-(2,6-dioxopiperidine))-isoindole-1,3-dione))amino)propyl)oxy)phenyl)-3-oxo-4-aza-5α-androst-1-ene-17β-carboxamide] | > 1 µM | > 1 µM | > 1 µM
3 | C[C@]12C=CC(=O)N[C@@H]1CC[C@@H]1[C@@H]2CC[C@]2(C)[C@@H](C(=O)Nc3ccc(OCCCCCNc4cccc5c4C(=O)N(C4CCC(=O)NC4=O)C5=O)cc3)CC[C@@H]12 (stereo partly drawn) [C19, N-(4-((5-((4-(2-(3-(2,6-dioxopiperidine))-isoindole-1,3-dione))amino)pentyl)oxy)phenyl)-3-oxo-4-aza-5α-androst-1-ene-17β-carboxamide] | > 1 µM | > 1 µM | > 1 µM
4 | C[C@]12C=CC(=O)N[C@@H]1CC[C@@H]1[C@@H]2CC[C@]2(C)[C@@H](C(=O)Nc3ccc(OCCCCCNc4ccc5c(c4)C(=O)N(C4CCC(=O)NC4=O)C5=O)cc3)CC[C@@H]12 (stereo partly drawn) [C20, N-(4-((5-((5-(2-(3-(2,6-dioxopiperidine))-isoindole-1,3-dione))amino)pentyl)oxy)phenyl)-3-oxo-4-aza-5α-androst-1-ene-17β-carboxamide] | > 1 µM | > 1 µM | > 1 µM
5 | C[C@]12C=CC(=O)N[C@@H]1CC[C@@H]1[C@@H]2CC[C@]2(C)[C@@H](C(=O)Nc3ccc(OCCCCCCNc4cccc5c4C(=O)N(C4CCC(=O)NC4=O)C5=O)cc3)CC[C@@H]12 (stereo partly drawn) [C21, N-(4-((6-((4-(2-(3-(2,6-dioxopiperidine))-isoindole-1,3-dione))amino)hexyl)oxy)phenyl)-3-oxo-4-aza-5α-androst-1-ene-17β-carboxamide] | > 1 µM | > 1 µM | > 1 µM
6 | C[C@]12C=CC(=O)N[C@@H]1CC[C@@H]1[C@@H]2CC[C@]2(C)[C@@H](C(=O)Nc3ccc(OCCCCCCNc4ccc5c(c4)C(=O)N(C4CCC(=O)NC4=O)C5=O)cc3)CC[C@@H]12 (stereo partly drawn) [C22, N-(4-((6-((5-(2-(3-(2,6-dioxopiperidine))-isoindole-1,3-dione))amino)hexyl)oxy)phenyl)-3-oxo-4-aza-5α-androst-1-ene-17β-carboxamide] | > 1 µM | > 1 µM | > 1 µM
7 | C[C@]12C=CC(=O)N[C@@H]1CC[C@@H]1[C@@H]2CC[C@]2(C)[C@@H](C(=O)Nc3ccc(OCCCCCCCNc4cccc5c4C(=O)N(C4CCC(=O)NC4=O)C5=O)cc3)CC[C@@H]12 (stereo partly drawn) [C23, N-(4-((7-((4-(2-(3-(2,6-dioxopiperidine))-isoindole-1,3-dione))amino)heptyl)oxy)phenyl)-3-oxo-4-aza-5α-androst-1-ene-17β-carboxamide] | > 1 µM | > 1 µM | > 1 µM
8 | C[C@]12C=CC(=O)N[C@@H]1CC[C@@H]1[C@@H]2CC[C@]2(C)[C@@H](C(=O)Nc3ccc(OCCCCCCCNc4ccc5c(c4)C(=O)N(C4CCC(=O)NC4=O)C5=O)cc3)CC[C@@H]12 (stereo partly drawn) [C24, N-(4-((7-((5-(2-(3-(2,6-dioxopiperidine))-isoindole-1,3-dione))amino)heptyl)oxy)phenyl)-3-oxo-4-aza-5α-androst-1-ene-17β-carboxamide] | > 1 µM | > 1 µM | > 1 µM
9 | C[C@]12C=CC(=O)N[C@@H]1CC[C@@H]1[C@@H]2CC[C@]2(C)[C@@H](C(=O)Nc3ccc(OCCCCCCCCNc4cccc5c4C(=O)N(C4CCC(=O)NC4=O)C5=O)cc3)CC[C@@H]12 (stereo partly drawn) [C25, N-(4-((8-((4-(2-(3-(2,6-dioxopiperidine))-isoindole-1,3-dione))amino)octyl)oxy)phenyl)-3-oxo-4-aza-5α-androst-1-ene-17β-carboxamide] | > 1 µM | > 1 µM | > 1 µM
10 | C[C@]12C=CC(=O)N[C@@H]1CC[C@@H]1[C@@H]2CC[C@]2(C)[C@@H](C(=O)Nc3ccc(OCCCCCCCCNc4ccc5c(c4)C(=O)N(C4CCC(=O)NC4=O)C5=O)cc3)CC[C@@H]12 (stereo partly drawn) [C26, N-(4-((8-((5-(2-(3-(2,6-dioxopiperidine))-isoindole-1,3-dione))amino)octyl)oxy)phenyl)-3-oxo-4-aza-5α-androst-1-ene-17β-carboxamide] | 0.01 to 1 µM | 0.0001 to 0.01 µM | > 1 µM
11 | C[C@]12C=CC(=O)N[C@@H]1CC[C@@H]1[C@@H]2CC[C@]2(C)[C@@H](C(=O)Nc3cccc(OCCNc4cccc5c4C(=O)N(C4CCC(=O)NC4=O)C5=O)c3)CC[C@@H]12 (stereo partly drawn) [C27, N-(3-((2-((4-(2-(3-(2,6-dioxopiperidine))-isoindole-1,3-dione))amino)ethyl)oxy)phenyl)-3-oxo-4-aza-5α-androst-1-ene-17β-carboxamide] | > 1 µM | 0.01 to 1 µM | > 1 µM
12 | C[C@]12C=CC(=O)N[C@@H]1CC[C@@H]1[C@@H]2CC[C@]2(C)[C@@H](C(=O)Nc3cccc(OCCNc4ccc5c(c4)C(=O)N(C4CCC(=O)NC4=O)C5=O)c3)CC[C@@H]12 (stereo partly drawn) [C28, N-(3-((2-((5-(2-(3-(2,6-dioxopiperidine))-isoindole-1,3-dione))amino)ethyl)oxy)phenyl)-3-oxo-4-aza-5α-androst-1-ene-17β-carboxamide] | > 1 µM | > 1 µM | > 1 µM
